Values quoted from earlier work, collected in US20070293529A1, “Tetrasubstituted ureas as modulators of 11-beta hydroxyl steroid dehydrogenase type 1” (priority 2006, published 2007).

How the values were obtained:
11βHSD1 in the eye = target: T1, 11βHSD1 in the eye (Homo sapiens, UniProt P28845); details: healthy volunteers, after seven days of carbenoxolone treatment
T1 construct: host or cells: endogenous enzyme in the eye (NPE cells) of the treated volunteers

[1] = tested on: pancreatic islet cells of ob/ob mice
[2] = tested on: primary hippocampal cells
11βHSD1 = target: T2, 11βHSD1 (Homo sapiens, UniProt P28845); details: two randomized, double-blind, placebo-controlled crossover studies
T2 construct: host or cells: endogenous enzyme of the treated subjects (brain)
T2 sequence (P28845 whole entry): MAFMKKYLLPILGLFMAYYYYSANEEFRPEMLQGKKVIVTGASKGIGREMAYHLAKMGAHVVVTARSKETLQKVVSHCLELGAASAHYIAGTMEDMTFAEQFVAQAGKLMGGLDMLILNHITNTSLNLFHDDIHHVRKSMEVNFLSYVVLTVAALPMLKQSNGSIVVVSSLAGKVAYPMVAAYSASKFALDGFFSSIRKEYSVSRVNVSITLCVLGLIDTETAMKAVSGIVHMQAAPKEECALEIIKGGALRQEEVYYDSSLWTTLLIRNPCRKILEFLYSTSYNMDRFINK

T1 sequence (P28845 whole entry): as above

What does the source list for `CC1(C)[C@@H](OC(=O)CCC(=O)O)CC[C@]2(C)[C@H]3C(=O)C=C4[C@@H]5C[C@@](C)(C(=O)O)CC[C@]5(C)CC[C@@]4(C)[C@]3(C)CC[C@@H]12` [carbenoxolone]?
reduction of intra-ocular pressure (IOP) (11βHSD1 in the eye): 18%; glucose-stimulated insulin release [1]: improves glucose-stimulated insulin release; protection from glucocorticoid-mediated exacerbation of excitatory amino acid neurotoxicity [2]: protects the cells from glucocorticoid-mediated exacerbation of excitatory amino acid neurotoxicity; verbal fluency and verbal memory (11βHSD1): improved verbal fluency and verbal memory; negative effects of glucocorticoids on bone nodule formation (bone nodule formation): attenuate the negative effects of glucocorticoids on bone nodule formation
